Test results published in patent US11530206B2, “Phenylaminopyrimidine amide autophagy inhibitors and methods of use thereof” (Deciphera Pharmaceuticals, LLC, priority 2019, dated 2022).

Legend:
ULK1 kinase [1] = molecular target: T1, ULK1 kinase (Homo sapiens, UniProt O75385); assay: Biochemical assay for ULK1.2 (coupled pyruvate kinase/lactate dehydrogenase assay); conditions: 19 nM ULK1 (residues 1-314, His tag), myelin basic protein, 1 mM ATP
T1 construct: purchased Eurofins 14-959
T1 sequence (O75385 with tags, fused parts or gaps): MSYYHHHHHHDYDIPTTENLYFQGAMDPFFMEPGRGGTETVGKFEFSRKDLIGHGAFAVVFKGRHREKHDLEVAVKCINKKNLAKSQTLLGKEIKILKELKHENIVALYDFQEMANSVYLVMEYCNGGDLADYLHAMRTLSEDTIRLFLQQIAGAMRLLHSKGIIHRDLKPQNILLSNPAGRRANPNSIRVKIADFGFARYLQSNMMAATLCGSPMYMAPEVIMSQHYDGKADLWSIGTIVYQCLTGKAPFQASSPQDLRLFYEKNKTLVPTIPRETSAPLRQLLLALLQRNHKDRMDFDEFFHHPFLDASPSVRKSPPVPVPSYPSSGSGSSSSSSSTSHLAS
Protocol: Biochemical Assay for ULK1.2 (SEQ. ID NO: 1)
Inhibition of ULK1 was measured by adding serial diluted test compound (final assay concentration of 1% DMSO). A decrease in absorption at 340 nm was monitored continuously for 6 hours at 30° C. on a multi-mode microplate reader (BioTek). The reaction rate was calculated using the 2-3 h time frame. The reaction rate at each concentration of compound was converted to percent inhibition using controls (i.e. reaction with no test compound and reaction with a known inhibitor) and IC50 values were calculated by fitting a four-parameter sigmoidal curve to the data using Prism (GraphPad software).

ULK2 kinase = molecular target: T2, ULK2 kinase (Homo sapiens, UniProt Q8IYT8); assay: Biochemical assay for ULK2 (coupled pyruvate kinase/lactate dehydrogenase assay); conditions: 9.7 nM ULK2 (residues 1-306, GST and His tag), myelin basic protein, 1 mM ATP; read-out: ULK2.2
T2 construct: purchased Eurofins 14-772
T2 sequence (Q8IYT8 with tags, fused parts or gaps): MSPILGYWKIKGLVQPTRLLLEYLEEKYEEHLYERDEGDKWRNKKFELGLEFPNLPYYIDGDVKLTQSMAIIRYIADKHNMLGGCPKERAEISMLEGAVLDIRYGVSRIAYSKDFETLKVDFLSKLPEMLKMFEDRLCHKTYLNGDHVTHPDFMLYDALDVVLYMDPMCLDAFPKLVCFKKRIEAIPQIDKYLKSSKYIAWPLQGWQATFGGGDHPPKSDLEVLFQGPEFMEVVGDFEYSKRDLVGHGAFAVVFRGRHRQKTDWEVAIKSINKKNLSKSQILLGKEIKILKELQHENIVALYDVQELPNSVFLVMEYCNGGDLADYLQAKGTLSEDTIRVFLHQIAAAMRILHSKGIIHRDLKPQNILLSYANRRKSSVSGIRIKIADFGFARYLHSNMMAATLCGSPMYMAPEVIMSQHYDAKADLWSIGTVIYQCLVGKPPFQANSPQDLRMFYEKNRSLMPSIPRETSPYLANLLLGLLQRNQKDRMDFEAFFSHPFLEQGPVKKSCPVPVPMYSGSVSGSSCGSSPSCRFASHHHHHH
Protocol: Example 132. Biochemical Assay for ULK2 (SEQ. ID NO: 3)
Activity of ULK2 kinase was determined spectroscopically using a coupled pyruvate kinase/lactate dehydrogenase assay that continuously monitors the ATP hydrolysis-dependent oxidation of NADH (e.g., Schindler et al. Science (2000) 289: 1938-1942). Assays were conducted in 384-well plates (100 uL final volume) using 9.7 nM ULK2 (Eurofins CAT #14-772), 0.25 mg/mL myelin basic protein, 1.5 units pyruvate kinase, 2.1 units lactate dehydrogenase, 1 mM phosphoenol pyruvate, 0.28 mM NADH and 1 mM ATP in assay buffer (100 mM Tris, pH 7.5, 15 mM MgCl2, 0.5 mM DTT, 0.1% octyl-glucoside, 0.002% (w/v) BSA, and 0.002% Triton X-100). Inhibition of ULK2 was measured by adding serial diluted test compound (final assay concentration of 1% DMSO). A decrease in absorption at 340 nm was monitored continuously for 6 hours at 30° C. on a multi-mode microplate reader (BioTek). The reaction rate was calculated using the 2-3 h time frame. The reaction rate at each concentration of compound was converted to percent inhibition using controls (i.e. reaction with no test compound and reaction with a known inhibitor) and IC50 values were calculated by fitting a four-parameter sigmoidal curve to the data using Prism (GraphPad software).

ULK kinase [2] = assay: pATG13 levels of mutant KRas A549 cells after treatment with ULK inhibitors in combination with trametinib (ELISA); assay type: cell-based, human; conditions: A549 (KRAS mutant) lung cancer cells, 250 nM trametinib, overnight, pS318-ATG13
Procedure, shortened: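 Lysates with phosphatase/protease inhibitors assayed by pATG13 ELISA, A450 minus A540 background and blank-corrected. % ATG13 phosphorylation versus DMSO controls fitted to IC50.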

ULK kinase [3] = assay: pATG13 levels of mutant KRas HCT-116 cells after treatment with ULK inhibitors in combination with trametinib (ELISA); assay type: cell-based, human; conditions: HCT-116 colon cancer cells, 250 nM trametinib, overnight, pS318-ATG13
Protocol: The following day, 10 μL of media containing trametinib or DMSO as a control was added to wells. […] A dose response of a test compound (0.6 μL per well) was added. DMSO (0.6 μL) was added to control wells. The plate was briefly shaken to mix wells and then incubated at 37° C. overnight. The next day, the media was aspirated and cells were washed with Dulbecco's Phosphate Buffered Saline (Gibco). Cells were lysed using MPER lysis buffer (Pierce, Rockford, Ill.) containing Halt Phosphatase and Protease Inhibitors (Pierce, Rockford, Ill.) and Phosphatase inhibitor cocktail 2 (Sigma, St. Louis, Mo.) at 4° C. for 10 minutes with shaking.
(§1) Plate wells were washed with ELISA wash buffer. Cell lysate was added to wells and incubated at room temperature for 2 hours. Plate wells were washed with ELISA wash buffer. […] Plate wells were washed with ELISA wash buffer. […] Plate wells were washed with ELISA wash buffer. […] The reaction was stopped with 2N Sulfuric Acid. The plate was analyzed at on a plate reader measuring absorbance at 450 nm and 540 nm (background). Signal was calculated by first subtracting the background absorbance at 540 nm from the absorbance at 450 nm for each well. Next, the background corrected absorbance at 450 nm from blank wells was subtracted from test wells. Data was compared to control wells to determine % ATG13 phosphorylation. GraphPad Prism was used to calculate IC50 values.

ULK kinase [4] = assay: pATG13 levels of mutant BRAF A375 cells after treatment with ULK inhibitors in combination with trametinib (ELISA); assay type: cell-based, human; conditions: A375 malignant melanoma cells (mutant BRAF), 250 nM trametinib, overnight, pS318-ATG13
Protocol: A375 human malignant melanoma cancer cells (20000 cells/well) were added to a 96-well tissue-culture treated plate in 100 μL of pre-warmed DMEM medium supplemented with 10% characterized fetal bovine serum (Invitrogen, Carlsbad, Calif.), 100 units/mL penicillin G, and 100 μg/mL streptomycin and allowed to grow overnight at 37° C., 5% CO2, and 95% humidity. The following day, 100 μL of media containing trametinib or DMSO as a control was added to wells. […] A dose response of a test compound (0.5 μL per well) was added. DMSO (0.5 μL) was added to control wells. The plate was briefly shaken to mix wells and then incubated at 37° C. overnight. The next day, the media was aspirated and cells were washed with Dulbecco's Phosphate Buffered Saline (Gibco). Cells were lysed using MPER lysis buffer (Pierce, Rockford, Ill.) containing Halt Phosphatase and Protease Inhibitors (Pierce, Rockford, Ill.) and Phosphatase inhibitor cocktail 2 (Sigma, St. Louis, Mo.) at 4° C. for 10 minutes with shaking.
as §1

ULK kinase [5] = assay: pATG13 levels of mutant KRas MiaPaCa-2 cells after treatment with ULK inhibitors in combination with trametinib (ELISA); assay type: cell-based, human; conditions: MiaPaCa-2 pancreatic cancer cells, 250 nM trametinib, overnight, pS318-ATG13
Procedure, shortened: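 MiaPaCa-2 cells in DMEM with 10% FBS and 2.5% horse serum were pretreated with trametinib or DMSO, then given a test-compound dose response overnight at 37° C. Lysates were assayed for phospho-ATG13 by ELISA (A450 minus A540 background, blank-corrected). % phosphorylation was calculated relative to controls and fitted to IC50.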

LRRK2 kinase = molecular target: T3, LRRK2 kinase (Homo sapiens, UniProt Q5S007); assay: Biochemical assay for LRRK2 (coupled pyruvate kinase/lactate dehydrogenase assay); conditions: 26.4 nM LRRK2 (residues 970-2528), peptide substrate, 1 mM ATP
T3 construct: purchased Thermo Fisher
T3 sequence (Q5S007 with tags, fused parts or gaps): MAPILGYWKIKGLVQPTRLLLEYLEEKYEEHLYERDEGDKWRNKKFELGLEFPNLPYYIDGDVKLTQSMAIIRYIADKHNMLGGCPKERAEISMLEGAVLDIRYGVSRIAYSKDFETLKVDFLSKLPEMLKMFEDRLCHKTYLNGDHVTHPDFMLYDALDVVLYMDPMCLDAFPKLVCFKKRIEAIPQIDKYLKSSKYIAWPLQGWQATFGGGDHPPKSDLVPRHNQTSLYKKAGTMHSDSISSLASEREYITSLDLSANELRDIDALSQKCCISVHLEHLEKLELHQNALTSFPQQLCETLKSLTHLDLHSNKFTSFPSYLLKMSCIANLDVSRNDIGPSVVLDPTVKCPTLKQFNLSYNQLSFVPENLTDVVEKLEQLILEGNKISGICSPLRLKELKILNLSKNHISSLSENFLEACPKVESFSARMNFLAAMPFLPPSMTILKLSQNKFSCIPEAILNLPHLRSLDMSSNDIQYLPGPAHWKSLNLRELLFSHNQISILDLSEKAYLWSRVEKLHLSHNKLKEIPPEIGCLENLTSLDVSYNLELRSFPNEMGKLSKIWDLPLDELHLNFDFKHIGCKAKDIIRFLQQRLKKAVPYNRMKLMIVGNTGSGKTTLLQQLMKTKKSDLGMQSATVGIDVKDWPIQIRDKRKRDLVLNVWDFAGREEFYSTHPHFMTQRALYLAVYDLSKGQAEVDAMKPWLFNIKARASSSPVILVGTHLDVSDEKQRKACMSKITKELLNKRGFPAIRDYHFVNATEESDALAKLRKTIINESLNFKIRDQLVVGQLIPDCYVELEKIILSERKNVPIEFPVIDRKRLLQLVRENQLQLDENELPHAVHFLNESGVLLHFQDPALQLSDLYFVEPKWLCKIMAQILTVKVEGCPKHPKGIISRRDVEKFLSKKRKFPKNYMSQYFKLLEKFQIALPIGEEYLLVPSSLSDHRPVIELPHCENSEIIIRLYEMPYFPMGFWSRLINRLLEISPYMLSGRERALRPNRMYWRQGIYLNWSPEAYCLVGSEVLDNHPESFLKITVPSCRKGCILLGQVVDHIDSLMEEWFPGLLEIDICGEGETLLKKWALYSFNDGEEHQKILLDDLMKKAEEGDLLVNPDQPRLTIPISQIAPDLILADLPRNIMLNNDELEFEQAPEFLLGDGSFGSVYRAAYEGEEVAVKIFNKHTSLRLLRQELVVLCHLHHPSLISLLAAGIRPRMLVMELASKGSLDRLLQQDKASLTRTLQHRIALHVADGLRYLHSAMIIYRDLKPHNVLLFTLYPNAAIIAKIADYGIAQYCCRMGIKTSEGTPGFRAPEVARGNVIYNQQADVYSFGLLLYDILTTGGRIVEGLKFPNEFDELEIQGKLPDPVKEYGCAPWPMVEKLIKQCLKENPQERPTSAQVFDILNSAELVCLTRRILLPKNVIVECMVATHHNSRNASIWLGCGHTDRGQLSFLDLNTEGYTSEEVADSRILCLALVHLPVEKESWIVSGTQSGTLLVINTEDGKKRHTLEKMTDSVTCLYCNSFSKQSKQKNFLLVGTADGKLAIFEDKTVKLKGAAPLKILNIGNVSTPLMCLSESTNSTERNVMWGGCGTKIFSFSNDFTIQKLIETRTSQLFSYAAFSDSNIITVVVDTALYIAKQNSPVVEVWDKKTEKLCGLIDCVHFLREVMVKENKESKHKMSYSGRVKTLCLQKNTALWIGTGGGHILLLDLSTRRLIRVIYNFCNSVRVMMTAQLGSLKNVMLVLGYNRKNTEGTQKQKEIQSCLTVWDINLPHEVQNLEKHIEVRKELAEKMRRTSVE
Procedure, shortened: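 Recombinant LRRK2 (26.4 nM) with 0.1 mM peptide substrate and 1 mM ATP in Tris pH 7.5/MgCl2 buffer; ADP production coupled via PK/LDH to NADH oxidation, A340 read continuously 6 h at 30 °C. Rates from 2–3 h window converted to % inhibition versus no-compound and reference-inhibitor controls; IC50 fitted.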

ULK1 kinase [6] = molecular target: T4, ULK1 kinase (Homo sapiens, UniProt O75385, E37A/K38A); assay: Biochemical assay for ULK1.3 (coupled pyruvate kinase/lactate dehydrogenase assay, peptide substrate); conditions: 0.1 nM ULK1 (residues 1-283), 1 mM ATP
T4 construct: purchased Beryllium
T4 sequence (O75385 1-283 E37A/K38A): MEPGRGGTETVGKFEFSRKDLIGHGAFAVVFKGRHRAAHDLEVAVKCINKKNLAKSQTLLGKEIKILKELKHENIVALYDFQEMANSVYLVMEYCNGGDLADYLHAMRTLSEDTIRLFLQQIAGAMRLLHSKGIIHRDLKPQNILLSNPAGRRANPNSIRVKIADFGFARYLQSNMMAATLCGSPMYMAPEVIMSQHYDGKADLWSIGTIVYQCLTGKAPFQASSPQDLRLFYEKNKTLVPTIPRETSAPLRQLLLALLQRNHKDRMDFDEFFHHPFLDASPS
Procedure, shortened: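 ULK1.3 activity was followed by continuous decrease in 340 nm absorbance over 6 h at 30 °C with 1% DMSO final. Rates were taken from the 2–3 h window and converted to percent inhibition against no-compound and known-inhibitor controls. IC50 values came from curve fitting.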

Compound	IC50 (ULK1 kinase [1]) [nM]	IC50 (ULK2 kinase) [nM]	IC50 (ULK kinase [2]) [nM]	IC50 (ULK kinase [3]) [nM]	IC50 (ULK kinase [4]) [nM]	IC50 (ULK kinase [5]) [nM]	IC50 (LRRK2 kinase) [nM]	IC50 (ULK1 kinase [6]) [nM]
CCc1cc(N2CCN(C)CC2)ccc1Nc1ncc(C(F)(F)F)c(NCCCN2CCCCC2=O)n1 [Example 11]	1 to 25	1 to 25	100 to 300	10 to 100	10 to 100	10 to 100	–	–
Cc1cc(N2CCN(CCF)CC2)ccc1Nc1ncc(C(F)(F)F)c(NCCCN2CCCCC2=O)n1 [Example 18]	100 to 500	25 to 100	–	–	–	–	1 to 100	–
Cc1cc(N2CCN(C)CC2)ccc1Nc1ncc(C(F)(F)F)c(NCCCN2CCCCC2=O)n1 [Example 20]	1 to 25	25 to 100	300 to 600	100 to 300	–	100 to 300	–	–
Cc1cc(N2CCNCC2)ccc1Nc1ncc(C(F)(F)F)c(NCCCN2CCCOC2=O)n1 [Example 37]	–	–	100 to 300	–	300 to 600	10 to 100	100 to 300	1 to 25
CN1CCN(c2ccc(Nc3ncc(C(F)(F)F)c(NCCCN4CCOCC4=O)n3)c(C3CC3)c2)CC1 [Example 47]	–	–	100 to 300	100 to 300	300 to 600	300 to 600	100 to 300	25 to 100
CCc1cc(N2CCOCC2)ccc1Nc1ncc(C(F)(F)F)c(NCCCN2CCCOCC2=O)n1 [Example 50]	100 to 500	> 500	> 600	–	–	> 600	1 to 100	–
O=C1COCCCN1CCCNc1nc(Nc2ccc(N3CCOCC3)cc2C2CC2)ncc1C(F)(F)F [Example 51]	100 to 500	> 500	–	–	–	–	1 to 100	–
CCc1cc(N2CCN(C)CC2)ccc1Nc1ncc(C(F)(F)F)c(NCCCN2CCCOCC2=O)n1 [Example 54]	1 to 25	25 to 100	10 to 100	10 to 100	–	10 to 100	–	–
CCc1cc(N2CCN(C)CC2)ccc1Nc1ncc(Cl)c(NCCCN2CCCOCC2=O)n1 [Example 58]	100 to 500	> 500	100 to 300	10 to 100	–	10 to 100	100 to 300	–
CCN1CCN(c2ccc(Nc3ncc(C(F)(F)F)c(NCCCN4CCCOCC4=O)n3)c(C(C)C)c2)CC1 [Example 60]	1 to 25	–	100 to 300	10 to 100	300 to 600	100 to 300	–	–
CCc1cc(N2CC3CCC(C2)N3C)ccc1Nc1ncc(C(F)(F)F)c(NCCCN2CCCOC2=O)n1 [Example 69]	–	–	10 to 100	10 to 100	–	10 to 100	300 to 600	1 to 25
Cc1cc(N2CCNCC2)ccc1Nc1ncc(C(F)(F)F)c(NCCCN2CCOCCC2=O)n1 [Example 75]	–	–	100 to 300	100 to 300	100 to 300	10 to 100	–	1 to 25
O=C1CCOCCN1CCCNc1nc(Nc2ccc(N3CCNCC3)cc2C2CC2)ncc1C(F)(F)F [Example 85]	–	–	10 to 100	100 to 300	100 to 300	10 to 100	–	1 to 25
Cc1cc(N2CCOCC2)ncc1Nc1ncc(C(F)(F)F)c(NCCCN2CCCCC2=O)n1 [Example 90]	> 500	> 500	–	–	–	–	300 to 600	–
Cc1cc(N2CCN(C)CC2)ncc1Nc1ncc(C(F)(F)F)c(NCCCN2CCCCC2=O)n1 [Example 91]	25 to 100	100 to 500	100 to 300	–	–	> 600	–	25 to 100
CCc1cc(N2CCN3CCC[C@@H]3C2)ccc1Nc1ncc(C(F)(F)F)c(NCCCN2CCOCCC2=O)n1 [Example 105]	–	–	10 to 100	10 to 100	–	10 to 100	1 to 100	1 to 25
CCc1cc(N2CCN3CCC[C@@H]3C2)ccc1Nc1ncc(C(F)(F)F)c(NCCCN2CCCOC2=O)n1 [Example 106]	–	–	10 to 100	10 to 100	–	10 to 100	100 to 300	1 to 25
Cc1cc(-c2cnn(C)c2)ccc1Nc1ncc(C(F)(F)F)c(NCCCN2CCCCC2=O)n1 [Example 108]	> 500	> 500	–	–	–	–	1 to 100	–
Cc1cc(-c2cn(C)cn2)ccc1Nc1ncc(C(F)(F)F)c(NCCCN2CCOCCC2=O)n1 [Example 109]	> 500	> 500	> 600	–	–	–	1 to 100	–
